Data published in US7476670B2, “Purine derivatives, method for preparing, pharmaceutical compositions and novel use” (Aventis Pharma S.A., priority 2003, dated 2009).
pIC50: −log10 of the molar value.

Columns and labels:
[1] = target: Cyclin Dependent kinase 1 (CDK1) (Homo sapiens, UniProt P06493); assay: Assay for inhibition of CDK1 activity; format: biochemical; details: [33P]ATP, read-out: percentage inhibition at 20 μM
Procedure: The inhibition of the kinase activity of Cyclin Dependent kinase 1 (CDK1) is determined by measuring the phosphorylation of its substrate peptide.
The test is carried out in a final volume of 50 μl.
(§1) The incubation buffer is as follows:
• 50 mM Tris/HCl pH 7.5 • 10 mM MgCl2 • […] Na2VO4 • 2 mM DTT • 40 mM Beta-glycerophosphate • 0.1 mg/ml BSA 5 μl of the 10-times concentrated inhibitor are added to 25 μl of incubation buffer containing 0.04 U/μl final concentration of the enzyme; 10 μl of incubation buffer containing 12.5 μM final concentration of peptide substrate are then added and, finally, 10 μl of incubation buffer containing 50 μM ATP and radiolabeled ATP, [^33P]ATP (0.5 μCi), are added. The reaction is stopped after incubation for 40 minutes at ambient temperature. • Results obtained expressed as percentage inhibition at 20 μM • Example 8 93% • Example 30 99% 5) Assay for Inhibition of Abl Activity

Casein Kinase II = assay: Assay for inhibition of casein kinase II activity; format: biochemical; details: [33P]ATP
Procedure: The inhibition of the kinase activity is determined by measuring the phosphorylation of its substrate peptide.
The assay is carried out in a final volume of 50 μl.
as §1
• 30 mM MES pH 6.9 • 15 mM MgCl2 • 195 mM KCl • 7.25 mM DTT 5 μl of the 10-times concentrated inhibitor are added to 25 μl of incubation buffer containing 1 U/μl final concentration of the enzyme (Tebu, SE-124); 10 μl of incubation buffer containing 60 μM final concentration of peptide substrate are then added, and, finally, 10 μl of incubation buffer containing 25 μM ATP and radiolabeled ATP, [^33P]ATP (0.25 μCi), are added. The reaction is stopped after incubation for 30 minutes at ambient temperature. • Results obtained expressed as percentage inhibition at 20 μM • Example 8 93% • Example 30 97% 8) Assay for Inhibition for CAN Kinase II Activity

SRC kinase = target: T1, SRC kinase (Homo sapiens, UniProt P12931); assay: Assay for inhibition of SRC kinase activity; format: biochemical; details: fluorescence polarization, read-out: percentage inhibition at 20 μM
T1 construct: purchased Upstate Biotechnology 14-117
T1 sequence (P12931 whole entry): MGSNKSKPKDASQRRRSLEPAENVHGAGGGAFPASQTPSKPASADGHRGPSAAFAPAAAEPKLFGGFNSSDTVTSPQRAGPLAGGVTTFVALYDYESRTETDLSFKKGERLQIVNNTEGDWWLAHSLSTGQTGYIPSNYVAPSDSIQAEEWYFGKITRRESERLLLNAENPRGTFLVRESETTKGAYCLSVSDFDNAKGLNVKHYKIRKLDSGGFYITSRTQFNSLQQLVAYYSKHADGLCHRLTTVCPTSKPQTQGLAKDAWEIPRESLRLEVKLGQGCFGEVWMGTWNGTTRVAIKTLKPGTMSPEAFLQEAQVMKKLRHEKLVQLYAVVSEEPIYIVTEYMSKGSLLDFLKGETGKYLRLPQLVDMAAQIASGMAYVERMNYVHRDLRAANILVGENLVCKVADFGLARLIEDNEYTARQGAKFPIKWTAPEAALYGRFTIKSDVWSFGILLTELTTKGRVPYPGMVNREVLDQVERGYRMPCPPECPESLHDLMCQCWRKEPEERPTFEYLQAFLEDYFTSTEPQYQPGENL
Procedure: 2) Assay for Inhibition of SRC Kinase Activity
The inhibition is determined by fluorescence polarization, the […] kinase phosphorylates a peptide detected by adding an anti-phosphopeptide antibody coupled to a fluorescent label.
The assay is carried out in a final volume of 50 μl; all the reagents are prepared in a buffer: • 25 mM HEPES/NaOH pH 7.6 • 5 mM MgCl2 • 2 mM MnCl2 • 50 μM Na2VO4 5 μl of the 10-times concentrated inhibitor are added to 25 μl of enzyme (12 U/ml final concentration), (Upstate Biotechnology ref 14-117). After incubation for 5 minutes at ambient temperature, 10 μl of PolyGluTyr 4/1 (150 ng/ml final concentration) and 10 μl of ATP (5 μM final concentration) are added. The detection is carried out after incubation for 20 minutes at ambient temperature. • Results obtained expressed as percentage inhibition at 20 μM • Example 8 98% • Example 15 99% • Example 20 99% • Example 24 99% • Example 27 95% • Example 30 99% • Example 32 100% • Example 38 95% 3) Assay for Inhibition of CDK2 Activity

CaCiv1 = CaCiv1 (Candida albicans, UniProt A0A1D8PH53); assay: Assay for inhibition of CIV-CDK (CIV1) activity; format: biochemical
Chain of CaCiv1 (A0A1D8PH53 entry or part of it): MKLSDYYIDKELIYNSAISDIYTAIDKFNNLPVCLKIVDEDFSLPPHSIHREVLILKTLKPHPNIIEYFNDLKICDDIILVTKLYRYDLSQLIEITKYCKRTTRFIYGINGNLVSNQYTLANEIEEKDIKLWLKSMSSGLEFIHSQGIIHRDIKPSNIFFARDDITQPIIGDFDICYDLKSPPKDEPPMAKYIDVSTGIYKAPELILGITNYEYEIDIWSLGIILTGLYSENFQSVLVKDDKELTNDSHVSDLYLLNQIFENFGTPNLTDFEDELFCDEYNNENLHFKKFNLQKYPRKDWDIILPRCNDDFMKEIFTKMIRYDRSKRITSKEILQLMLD
Excerpt: 1) Assay for Inhibition of CIV-CDK (CIV1) Activity
a) Preparation of the Reagents

Candida glabrata = assay: Minimum inhibitory concentration in liquid medium, micro method (NCCLS M27-A); format: cell-based; details: Nakaseomyces glabratus; at least 80% inhibition of growth, read after 24-48 h at 37° C., RPMI 1640; read-out: MIC Candida glabrata
Procedure: (§2) The assay is carried out in a final volume of 40 μl; all the reagents are prepared in a buffer: • 50 mM HEPES pH 7.5 • 0.03% triton X100 • 10 mM MgCl2 • 5% Glycerol • 1 mM DTT 10 μl of the 10-times concentrated inhibitor are added to 5 μl of enzyme (75 ng final concentration), and 5 μl of peptide (1 μM final concentration), then 2.5 μl of incubation buffer containing 40 μM ATP and 2.5 μl of radiolabeled ATP, [^33P]ATP (500 nCi), are added. After incubation for 15 minutes at ambient temperature, 10 μl of incubation buffer containing 192 nM of substrate. […] Reference method for broth dilution antifungal susceptibility testing of yeasts. Approved Standard M27-A. NCCLS, Villanova, Pa.); the minimum concentration with which a visible decrease is observed in the cloudiness of the cell growth (at least 80% compared to a control without product) is the Minimum Inhibitory Concentration (MIC) of the antifungal agent with respect to the strain tested.
(§3) RPMI 1640 medium (liquid) without L-glutamine is supplemented with L-glutamine (0.3 g/l or 10.5 ml of a solution at 200 mM) and buffered with 34.54 g/l (0.165 M) of morpholinepropanesulfonic acid (MOPS). The medium is sterilized by filtration. 100 μl of RPMI medium are distributed into each well of a 96-well plate. The appropriate volume. of the antifungal solution is distributed in the first column of the microplate and supplemented with 200 μl of medium. Doubling dilutions are made so as to establish a range of 11 concentrations in each line of the microplate. The 12th well of each row will serve as a growth control. The cell suspension is prepared from a culture (liquid or agar) or from a frozen vial, and is diluted in RPMI medium so as to obtain a cell suspension at 5×10^3−2×10^4 cells/ml. 100 μl of the cell suspension are distributed in the microplate. For all species of Candida, the MIC is read after 24-48 h, and for Cryptococcus and Aspergillus after 48-72 h, of incubation at 37° C. in a normal atmosphere. The MIC is read by visual reading, determining the well which contains the lowest dose of antifungal agent which causes at least 80% inhibition of the growth of the fungus.

Candida albicans = assay: as above; format: cell-based; details: at least 80% inhibition of growth, read after 24-48 h at 37° C., RPMI 1640, read-out: MIC Candida albicans
Procedure: as §2, §3

Chain of Cyclin Dependent kinase 1 (CDK1) (P06493 whole entry, species assumed): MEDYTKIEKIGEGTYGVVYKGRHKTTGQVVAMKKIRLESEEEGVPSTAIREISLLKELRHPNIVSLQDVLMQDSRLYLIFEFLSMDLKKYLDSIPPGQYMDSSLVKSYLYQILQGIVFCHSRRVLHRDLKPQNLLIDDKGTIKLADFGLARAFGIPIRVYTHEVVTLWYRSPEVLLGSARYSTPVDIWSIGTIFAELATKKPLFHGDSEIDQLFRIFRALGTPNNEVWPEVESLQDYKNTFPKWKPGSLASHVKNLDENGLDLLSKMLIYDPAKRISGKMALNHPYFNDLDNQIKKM
Chain of Cyclin Dependent kinase 1 (CDK1) (P14635 whole entry partner, species assumed): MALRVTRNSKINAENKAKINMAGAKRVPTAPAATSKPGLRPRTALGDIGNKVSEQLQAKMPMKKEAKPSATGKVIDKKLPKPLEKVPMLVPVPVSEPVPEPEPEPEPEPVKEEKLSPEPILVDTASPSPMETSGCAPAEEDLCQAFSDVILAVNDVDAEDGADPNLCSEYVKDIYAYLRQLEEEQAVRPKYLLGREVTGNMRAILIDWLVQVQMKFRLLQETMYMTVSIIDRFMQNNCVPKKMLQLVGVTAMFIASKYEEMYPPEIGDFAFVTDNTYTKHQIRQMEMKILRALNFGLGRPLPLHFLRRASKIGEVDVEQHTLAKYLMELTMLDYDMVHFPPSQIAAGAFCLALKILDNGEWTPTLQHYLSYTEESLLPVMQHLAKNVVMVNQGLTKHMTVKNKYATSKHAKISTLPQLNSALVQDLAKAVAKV

For Cl.Cl.N[C@H]1CC[C@H](Nc2nc(N3CCc4cc([N+](=O)[O-])ccc43)c3nc[nH]c3n2)CC1 [Example 30, Trans-N-[6-(2,3-dihydro-5-nitro-1H-indol-1-yl)-9H-purin-2-yl]-1,4-cyclohexanediamine dihydrochloride], the inhibition at 20 µM [1] was 99%, the “percentage inhibition at 20 μM” value (Casein Kinase II) was 97% and the inhibition at 20 µM (SRC kinase) was 99%. The pIC50 (CaCiv1) was 7.00, the MIC (Candida glabrata) was 64 µg/mL and the MIC (Candida albicans) was 32 µg/mL.
In the case of Cl.N[C@H]1CC[C@H](Nc2nc(-n3cnc4cc(Cl)c(Cl)cc43)c3nc[nH]c3n2)CC1 [Example 8, Trans-N-[6-(5,6-dichloro-1H-benzimidazol-1-yl)-9H-purin-2-yl]-1,4-cyclohexanediamine hydrochloride], the inhibition at 20 µM [1] was 93%, the “percentage inhibition at 20 μM” value (Casein Kinase II) was 93% and the inhibition at 20 µM (SRC kinase) was 98%. For the same compound, the pIC50 (CaCiv1) was 5.89, the MIC (Candida glabrata) was 16 µg/mL and the MIC (Candida albicans) was 16 µg/mL.
